Laboratory results taken from article PMC3049593 (British Journal of Cancer, 2011).

Tests used:
Cal27 tumours = test: Cal27 head and neck xenograft model; assay type: in vivo, nude mice; settings: 20 mg kg^−1 once-weekly s.c.
Procedure: (§1) In the orthotopic Hep3b2.1-7 human liver cancer model, treatment of mice (n=10) began 14 days after inoculation of 2.5 × 10^6 cells. […] To initiate tumour xenografts, MDA-MB-231, PC3, Cal27 and HepG2 cells were injected s.c. into nude mice (n=8) at 4, 5, 2 and 2 × 10^7 cells ml^−1, respectively. […] In the B16F0 lung metastasis model, 2 × 10^5 cells were injected via the tail vein of C57Bl6 mice (n=8). […] Surface lung macrometastases were counted for each group (n=9) upon study termination. In the intrasplenic HT-29 xenograft model, 1 × 10^6 cells in 100 μl were injected into the spleen. […] Solid tumours were measured in two dimensions (length and width) and the tumour volume (cm^3) was calculated using the equation: V=length × width^2 × π/6. The anti-tumour activity was expressed as percent tumour growth inhibition (%TGI). Further details are available in Supplementary Methods. […]
antibody. […]
staining. For quantification, three independent visual fields (20x magnification) were chosen and positive stained spots or vessels with identifiable lumen were counted.
Angiogenesis inhibition and induction were calculated using the equations: […]
regimen both before and after tumour cell inoculation (days -6, -3, 0, +3, +6) or only after tumour cell inoculation (days 0, +3, +6). B16 cell (2x105) were inoculated via tail vein injections and mice were culled and assessed for lung metastases on day 12. […]

[1] = system: LL/2 tumours and lung metastases; test: syngeneic Lewis Lung Carcinoma (LL/2) tumour growth and spontaneous metastasis model; assay type: in vivo, mice
Procedure: as §1
efficacy/PK study) using either a once or twice weekly dosing schedule (see figure legends for dose schedules in each study) for up to three weeks. […]
In the LL/2 mouse model, treatment of mice commenced on the day of inoculation (Day 0). Mice inoculated subcutaneously were treated with either Vehicle Control […]
once weekly or Sorafenib (60mg/kg, once daily, p.o.). The treatments were continued for three weeks. The lungs were excised from all mice at the time of culling for metastasis […]
count determination. […]
In relevant models, solid tumours were measured in two dimensions (length and width) and the tumour volume (mm3) calculated using the equation V = length × width2 × π/6.The anti-tumour activity was assessed by the comparison of the mean tumour volume of the treated groups to the mean tumour volume of the control group and expressed as the percent Tumour Growth Inhibition (TGI) using the equation:
%TGI = (1-((VendPG545 - VstartPG545) / (VendControl - VstartControl)))*100 VendPG545 = Ending Tumour Volume of PG545-treated animal
VstartPG545 = Starting Tumour Volume of PG545-treated animal
VendControl = Ending Tumour Volume of Control animal
VstartControl = Starting Tumour Volume of Control animal […]
After collection, 0.2 mL of […]
whole blood was added to a glass scintillation vial to which 1 mL Solvable was added.
Samples were incubated for one hour at 55-60°C. 0.1 mL of 0.1 M EDTA-di-sodium salt solution and 0.3 mL to 0.5 mL of 30% hydrogen peroxide in 0.1 mL aliquots were added to the sample. Samples were gently agitated between additions to allow reaction foaming to subside. Samples were incubated for 30 minutes at room temperature. Vials were capped tightly and incubated again at 55 – 60 °C fo r 1 hour. Samples were cooled to room temperature and 15 mL of ULTIMA Gold added.
For tumour samples, 100 mg of tissue was placed in a 20 mL glass scintillation vial and 2 mL of Solvable added. The samples were incubated at 50 - 60 °C for 1 hour with occasional swirling. Samples were cooled to room temperature and for tumours, 0.3 mL of 30% hydrogen peroxide in three aliquots of 0.1 mL were added. The samples were again incubated at 50 - 60 °C for 1 hour with occasional swirling. Tumours samples were […]

## CC(C)CCC[C@@H](C)[C@H]1CCC2C3CCC4C[C@@H](O[C@@H]5O[C@H](COS(=O)(=O)[O-])[C@@H](O[C@H]6O[C@H](COS(=O)(=O)[O-])[C@@H](O[C@H]7O[C@H](COS(=O)(=O)[O-])[C@@H](O[C@H]8O[C@H](COS(=O)(=O)[O-])[C@@H](OS(=O)(=O)[O-])[C@H](OS(=O)(=O)[O-])[C@H]8OS(=O)(=O)[O-])[C@H](OS(=O)(=O)[O-])[C@H]7OS(=O)(=O)[O-])[C@H](OS(=O)(=O)[O-])[C@H]6OS(=O)(=O)[O-])[C@H](OS(=O)(=O)[O-])[C@H]5OS(=O)(=O)[O-])CC[C@]4(C)C3CC[C@@]21C.[Na+].[Na+].[Na+].[Na+].[Na+].[Na+].[Na+].[Na+].[Na+].[Na+].[Na+].[Na+].[Na+] (some centres unmarked) [PG545]
Cal27 tumours
  TGI: 57%
[1]; 20 mg kg^−1 once-weekly
  TGI (primary tumour): 46%
  TGI / inhibition (lung metastases): 96%
[1]; 20 mg kg^−1 single dose
  TGI (lung metastases): 67%
  TGI (primary tumour): 15%
[1]; 40 mg kg^−1 once-weekly
  TGI (lung metastases): 67%
  TGI (primary tumour): 57%
[1]; 40 mg kg^−1 single dose
  TGI (primary tumour): 33%
